Experimental data: US20040076974A1, “Liver necrosis predictive genes” (priority 2002, published 2004)
“And” between values parts separate entries of the source, which are not always exact repeats. Equal values may be shown once.

Tested on: toxicologically relevant rat genes (rat CT array)
Conditions: 24 h; dose 200; listed as BRB

## Brc1ccccc1 [bromobenzene]
  3-hydroxyisobutyrate dehydrogenase expression (treatment/control): 0.8751 and 1.339 and 0.6927
  14-3-3 zeta expression (treatment/control): 1.437 and 1.592
  25-DX expression (treatment/control): 1.969 and 1.763 and 1.86
  60S ribosomal protein L6 expression (treatment/control): 2.093 and 1.63 and 1.941
  Alpha-2-macroglobulin expression (treatment/control): 0.5548 and 0.5467 and 0.459
  Apolipoprotein CIII expression (treatment/control): 0.8126 and 0.7007
  Argininosuccinate lyase expression (treatment/control): 2.651 and 1.764 and 2.145
  Bax (alpha) expression (treatment/control): 1.536 and 1.414 and 1.327
  Beta-actin expression (treatment/control): 2.486 and 1.816 and 2.608
  Beta-tubulin, class I expression (treatment/control): 2.668 and 1.782 and 2.339
  Carbonyl reductase expression (treatment/control): 1.678 and 1.035 and 1.375
  Cathepsin L, sequence 2 expression (treatment/control): 2.896 and 1.549 and 2.344
  Cofilin expression (treatment/control): 2.923 and 2.064 and 2.935
  DNA polymerase beta expression (treatment/control): 1.369 and 1.206 and 1.307
  Dynamin-1 (D100) expression (treatment/control): 0.8053 and 0.7635 and 0.8226
  Elongation factor-1 alpha expression (treatment/control): 2.054 and 1.728 and 1.8
  Endogenous retroviral sequence, 5′ and 3′ LTR expression (treatment/control): 1.854 and 1.585 and 2.582
  Enolase alpha expression (treatment/control): 2.419 and 1.535 and 1.712
  Epidermal growth factor expression (treatment/control): 0.7593 and 0.7117 and 0.804
  Fas antigen expression (treatment/control): 0.9199 and 0.9142 and 1.12
  Glucose-regulated protein 78 expression (treatment/control): 1.405 and 1.625 and 1.635
  Hepatic lipase expression (treatment/control): 0.569 and 0.6299 and 0.3937
  ID-1 expression (treatment/control): 1.9 and 1.248 and 1.715
  Integrin beta1 expression (treatment/control): 1.457 and 0.9085 and 1.427
  MAP kinase kinase expression (treatment/control): 1.27 and 1.166 and 1.092
  Matrin F/G expression (treatment/control): 0.6546 and 0.8987 and 0.4635
  Matrix metalloproteinase-1 expression (treatment/control): 1.585 and 1.263 and 1.628
  Melanoma-associated antigen ME491 expression (treatment/control): 1.388 and 0.9209 and 1.67
  Monocyte chemotactic protein receptor (CCR2) expression (treatment/control): 1.124 and 0.9935 and 1.064
  Multidrug resistant protein-2 expression (treatment/control): 1.861 and 1.261 and 1.657
  Nucleoside diphosphate kinase beta isoform expression (treatment/control): 1.862 and 1.504 and 1.541
  Organic anion transporter 3 expression (treatment/control): 0.5569 and 0.821 and 0.6551
  Organic cation transporter 3 expression (treatment/control): 1.241 and 0.9547 and 1.365
  Ornithine decarboxylase expression (treatment/control): 2.762 and 1.488 and 2.288
  Phase-1 RCT-12 expression (treatment/control): 1.003
  Phase-1 RCT-15 expression (treatment/control): 2.352 and 2.155
  Phase-1 RCT-36 expression (treatment/control): 0.7233 and 0.7082 and 0.8303
  Phase-1 RCT-37 expression (treatment/control): 0.9672
  Phase-1 RCT-65 expression (treatment/control): 1.706 and 1.856
  Phase-1 RCT-68 expression (treatment/control): 1.972 and 1.887
  Phase-1 RCT-72 expression (treatment/control): 1.442
  Phase-1 RCT-78 expression (treatment/control): 0.6352 and 0.7712 and 0.5322
  Phase-1 RCT-83 expression (treatment/control): 0.6204 and 0.729
  Phase-1 RCT-88 expression (treatment/control): 0.7128 and 0.75 and 0.8397
  Phase-1 RCT-109 expression (treatment/control): 1.895 and 1.651 and 2.226
  Phase-1 RCT-117 expression (treatment/control): 0.6683 and 0.7437
  Phase-1 RCT-123 expression (treatment/control): 0.7152 and 0.6828 and 0.8648
  Phase-1 RCT-137 expression (treatment/control): 1.102 and 0.6023
  Phase-1 RCT-152 expression (treatment/control): 1.957 and 1.542 and 2.109
  Phase-1 RCT-154 expression (treatment/control): 0.9986 and 1.304
  Phase-1 RCT-168 expression (treatment/control): 0.6821 and 0.7986 and 0.5665
  Phase-1 RCT-180 expression (treatment/control): 1.503
  Phase-1 RCT-181 expression (treatment/control): 0.8932 and 0.9997
  Phase-1 RCT-182 expression (treatment/control): 1.301 and 0.688
  Phase-1 RCT-189 expression (treatment/control): 0.5887 and 0.552
  Phase-1 RCT-191 expression (treatment/control): 1.728 and 1.302 and 2.139
  Phase-1 RCT-192 expression (treatment/control): 1.596
  Phase-1 RCT-213 expression (treatment/control): 1.467
  Phase-1 RCT-214 expression (treatment/control): 0.4191 and 0.7327 and 0.3835
  Phase-1 RCT-239 expression (treatment/control): 0.6828
  Phase-1 RCT-258 expression (treatment/control): 0.9631 and 1.542
  Phase-1 RCT-271 expression (treatment/control): 0.5825 and 0.5279
  Phase-1 RCT-291 expression (treatment/control): 1.199 and 0.6861
  Phase-1 RCT-295 expression (treatment/control): 2.141 and 1.945 and 1.916
  Proliferating cell nuclear antigen gene expression (treatment/control): 1.304 and 0.7642 and 1.223
  Pyruvate kinase, muscle expression (treatment/control): 1.814 and 1.17 and 1.778
  Ref-1 expression (treatment/control): 2.201 and 1.238 and 2.06
